Patent US11440913B2, “Aminoimidazopyridazines as kinase inhibitors” (BRISTOL-MYERS SQUIBB COMPANY, priority 2017, dated 2022)
Where a name gives a salt, the structure may show the parent alone. Read-outs that look alike come from different tables or passages of the source.

Columns and labels:
[1] = target: His-GST-TVMV-hRIPK1(1-324) (Homo sapiens (Human), UniProt Q13546); experiment: RIPK1 HTRF Binding Assay; conditions: HTRF binding, 1 h at rt, read-out: RIPK1 (IC50)
Procedure, shortened: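 HTRF probe-displacement binding: 1 nM His-GST-TVMV-hRIPK1(1-324) (baculovirus construct), 90.6 nM probe, 0.2 nM anti-GST-Tb in 20 mM HEPES, 10 mM MgCl2, 0.015% Brij-35, 4 mM DTT, 0.05 mg/mL BSA. Incubated 1 h at rt; FRET 520/495 nm ratio, inhibition relative to DMSO-only wells.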

[2] = tested on: MLKL phosphorylation in HT29-L23 human colorectal adenocarcinoma cells; experiment: MLKL Phosphorylation High-Content Assay; type: cell-based; conditions: 6 h, necroptosis induced with TNFα, SMAC mimetic and Z-VAD, read-out: pMLKL (IC50)
Procedure, shortened: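 HT29-L23 cells pretreated 30 min at 37 °C with compound (6.25 to 0.106 μM final), then necroptosis induced with TNFα 35 ng/mL, SMAC mimetic 700 nM and Z-VAD 140 nM for 6 h. Fixed cells immunostained for MLKL pS358 and imaged; IC50 and Ymax from 4-parameter logistic fit.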

Sequence of His-GST-TVMV-hRIPK1(1-324) (Q13546 1-324): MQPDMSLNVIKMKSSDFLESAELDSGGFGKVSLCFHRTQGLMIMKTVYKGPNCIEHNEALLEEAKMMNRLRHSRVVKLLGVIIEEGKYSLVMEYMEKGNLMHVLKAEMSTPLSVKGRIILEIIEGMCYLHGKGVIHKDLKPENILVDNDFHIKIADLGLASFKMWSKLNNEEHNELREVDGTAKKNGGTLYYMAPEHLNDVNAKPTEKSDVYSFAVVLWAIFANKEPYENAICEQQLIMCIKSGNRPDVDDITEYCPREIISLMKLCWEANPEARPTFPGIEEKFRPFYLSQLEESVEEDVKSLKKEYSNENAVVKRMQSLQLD

Compound `COc1ncc(-c2ccc3nc(NC(C)=O)cn3n2)cc1C(=O)NC(C)c1cccc(OC(F)(F)F)c1` (stereo not shown) [Example 123, 5-{2-acetamidoimidazo[1,2-b]pyridazin-6-yl}-2-methoxy-N-{1-[3-(trifluoro-methoxy)phenyl]ethyl}pyridine-3-carboxamide] has an IC50 [1] of 37 nM and an IC50 ([2]; Homo sapiens) of 218 nM.

`CC(=O)Nc1cn2nc(-c3ccc(C)c(C(=O)N[C@H](C)c4cc(OC(F)(F)F)ccc4F)c3)ccc2n1` [Example 396, (R)-5-(2-acetamidoimidazo [1,2-b]pyridazin-6-yl)-N-(1-(2-fluoro-5-(trifluoromethoxy)phenyl)ethyl)-2-methylbenzamide] was tested, and the IC50 [1] was 1 nM and the IC50 ([2]; Homo sapiens) was 7 nM.

Compound `COc1ncc(-c2ccc3nc(NC(C)=O)cn3n2)cc1C(=O)NCc1cccc(F)c1OC(C)C1CC1` (stereo not shown) [Example 135, N-{[2-(1-cyclopropylethoxy)-3-fluorophenyl]methyl}-5-{2-acetamidoimidazo[1,2-b]pyridazin-6-yl}-2-methoxypyridine-3-carboxamide] has an IC50 [1] of 3 nM and an IC50 [2] of 7 nM.

In the case of `COc1ncc(-c2ccc3nc(NC(C)=O)cn3n2)cc1C(=O)NCc1ccc(F)c(OCC2CC2)c1` [Example 142, N-{[3-(cyclopropylmethoxy)-4-fluorophenyl]methyl}-5-{2-acetamidoimidazo[1,2-b]pyridazin-6-yl}-2-methoxypyridine-3-carboxamide], the IC50 [1] is reported as 29 nM and the IC50 ([2]; Homo sapiens) is reported as 181 nM.

`COc1ncc(-c2ccc3nc(NC(=O)C(C)C)cn3n2)cc1C(=O)NCc1ccccc1OC(F)(F)F` [Example 263, 2-methoxy-5-[2-(2-methylpropanamido)imidazo[1,2-b]pyridazin-6-yl]-N-{[2-(trifluoromethoxy)phenyl]-methyl}pyridine-3-carboxamide] gave an IC50 [1] of 107 nM and an IC50 ([2]; Homo sapiens) of 38 nM.

`COc1ncc(-c2ccc3nc(NC(C)=O)cn3n2)cc1C(=O)NCc1ccccc1N1CCOCC1` [Example 162, 5-{2-acetamidoimidazo[1,2-b]pyridazin-6-yl}-2-methoxy-N-{[2-(morpholin-4-yl)phenyl]methyl}pyridine-3-carboxamide] gave an IC50 [1] of 64 nM and an IC50 ([2]; Homo sapiens) of 140 nM.

In the case of `COc1nc(C)c(-c2ccc3nc(NC(C)=O)cn3n2)cc1C(=O)NCc1ccc(F)cc1OCC1CC1` [Example 317, N-{[2-(cyclopropylmethoxy)-4-fluorophenyl]methyl}-5-{2-acetamidoimidazo[1,2-b]pyridazin-6-yl}-2-methoxy-6-methylpyridine-3-carboxamide], the IC50 [1] is reported as 3 nM and the IC50 ([2]; Homo sapiens) is reported as 19 nM.

Work on `CC(=O)Nc1cn2nc(-c3cc(F)c(C)c(C(=O)NCc4c(F)cccc4C(=O)N4CCC(F)(F)C4)c3)ccc2n1` [Example 365, N-{[2-(3,3-difluoropyrrolidine-1-carbonyl)-6-fluorophenyl]methyl}-5-{2-acetamidoimidazo [1,2-b]pyridazin-6-yl}-3-fluoro-2-methylbenzamide] yielded an IC50 [1] of 37 nM and an IC50 ([2]; Homo sapiens) of 116 nM.

For `CC(=O)Nc1cn2nc(-c3cnc(C)c(C(=O)NCc4cc(OC(F)(F)F)ccc4F)c3)ccc2n1` [Example 213, 5-{2-acetamidoimidazo[1,2-b]pyridazin-6-yl}-N-{[2-fluoro-5-(trifluoromethoxy)phenyl]methyl}-2-methylpyridine-3-carboxamide], the IC50 [1] was 7 nM and the IC50 ([2]; Homo sapiens) was 6 nM.

`CC(=O)Nc1cn2nc(-c3cc(C(=O)NCc4cccnc4OCC4CCCC4)c(C)nc3C)ccc2n1` [Example 84, N-{[2-(cyclopentylmethoxy)pyridin-3-yl]methyl}-5-{2-acetamidoimidazo[1,2-b]pyridazin-6-yl}-2,6-dimethylpyridine-3-carboxamide] was tested, and the IC50 [1] was 19 nM and the IC50 ([2]; Homo sapiens) was 26 nM.

`CC(=O)Nc1cn2nc(-c3cnc(C)c(C(=O)NCc4cccc(OCC(F)(F)F)c4)c3)ccc2n1` [Example 194, 5-{2-acetamidoimidazo[1,2-b]pyridazin-6-yl}-2-methyl-N-{[3-(2,2,2-trifluoroethoxy)phenyl]methyl}pyridine-3-carboxamide] gave an IC50 [1] of 100 nM and an IC50 ([2]; Homo sapiens) of 141 nM.

For `COc1nc(C)c(-c2ccc3nc(NC(C)=O)cn3n2)cc1C(=O)NCc1ccccc1OCC1CC1` [Example 318, N-{[2-(cyclopropylmethoxy)phenyl]methyl}-5-{2-acetamidoimidazo[1,2-b]pyridazin-6-yl}-2-methoxy-6-methylpyridine-3-carboxamide], the IC50 [1] was 3 nM and the IC50 ([2]; Homo sapiens) was 2 nM.

`[2H]C([2H])([2H])Oc1ncc(-c2ccc3nc(NC(C)=O)cn3n2)cc1C(=O)NCc1cc(OC(F)(F)F)ccc1F` [Example 58, 5-{2-acetamidoimidazo[1,2-b]pyridazin-6-yl}-N-{[2-fluoro-5-(trifluoromethoxy)phenyl]methyl}-2-(D3)methoxypyridine-3-carboxamide] gave an IC50 [1] of 14 nM and an IC50 ([2]; Homo sapiens) of 21 nM.

Work on `COc1nc(C)c(-c2ccc3nc(NC(C)=O)cn3n2)cc1C(=O)NCC[C@H](O)c1ccc(Cl)cc1` [Example 301, N-[(3S)-3-(4-chlorophenyl)-3-hydroxypropyl]-5-{2-acetamidoimidazo[1,2-b]pyridazin-6-yl}-2-methoxy-6-methylpyridine-3-carboxamide] yielded an IC50 [1] of 25 nM and an IC50 ([2]; Homo sapiens) of 22 nM.

Compound `CC(=O)OCC(=O)Nc1cn2nc(-c3cc(C(=O)NCc4cc(OC(F)(F)F)ccc4F)c(C)nc3C)ccc2n1` [Example 327, ({6-[5-({[2-fluoro-5-(trifluoromethoxy)phenyl]methyl}carbamoyl)-2,6-dimethylpyridin-3-yl]imidazo[1,2-b]pyridazin-2-yl}carbamoyl)methyl acetate] has an IC50 [1] of 5 nM and an IC50 ([2]; Homo sapiens) of 25 nM.

In the case of “5-{2- acetamidoimidazo [1,2-b]pyridazin- 6-yl}-N-[(1R)- 1-[2-fluoro-5- (trifluoromethyl) phenyl](2,2,2-Â^2Hâ,f) ethyl]-2 methylbenzamide [Example 425]”, the IC50 [1] is reported as > 5000 nM and the IC50 [2] is reported as 327 nM.

In the case of `[2H]C([2H])(NC(=O)c1cc(-c2ccc3nc(NC(C)=O)cn3n2)cnc1C)c1cc(C(F)(F)F)ccc1F` [Example 200, 5-{2-acetamidoimidazo[1,2-b]pyridazin-6-yl}-N-{[2-fluoro-5-(trifluoromethyl)phenyl] (deutero)methyl}-2-methylpyridine-3-carboxamide], the IC50 [1] is reported as 17 nM and the IC50 ([2]; Homo sapiens) is reported as 34 nM.

Compound `COc1ncc(-c2ccc3nc(NC(C)=O)c(C)n3n2)cc1C(=O)NCc1cc(OC(F)(F)F)ccc1F` [Example 6, 5-{2-acetamido-3-methylimidazo[1,2-b]pyridazin-6-yl}-N-{[2-fluoro-5-(trifluoromethoxy)phenyl]methyl}-2-methoxypyridine-3-carboxamide] has an IC50 [1] of 25 nM and an IC50 ([2]; Homo sapiens) of 10 nM.

With “5-{2-acetamidoimidazo[1,2-b]pyridazin- 6-yl}-2-methoxy-6-methyl-N-{[2- (trifluoromethoxy)phenyl](deutero)- methyl}pyridine-3-carboxamide [Example 295]” the IC50 [1] was 10 nM and the IC50 [2] was 23 nM.

With `CC(=O)Nc1cn2nc(-c3cc(C(=O)NCc4cc(F)cc(F)c4OC4CC(C)OC(C)C4)c(C)nc3C)ccc2n1` (stereo not shown) [Example 64, N-({2-[(2,6-dimethyloxan-4-yl)oxy]-3,5-difluorophenyl}methyl)-5-{2-acetamidoimidazo[1,2-b]pyridazin-6-yl}-2,6-dimethylpyridine-3-carboxamide] the IC50 [1] was 49 nM and the IC50 ([2]; Homo sapiens) was 45 nM.

For `COc1ncc(-c2ccc3nc(NC(C)=O)cn3n2)cc1C(=O)NCc1cc(F)cc(F)c1OC1CC1` [Example 118, N-[(2-cyclopropoxy-3,5-difluorophenyl)methyl]-5-{2-acetamidoimidazo[1,2-b]pyridazin-6-yl}-2-methoxypyridine-3-carboxamide], the IC50 [1] was 2 nM and the IC50 ([2]; Homo sapiens) was 28 nM.

For `COc1nc(C)c(-c2ccc3nc(NC(C)=O)cn3n2)cc1C(=O)NC(C)c1cc(OC(F)(F)F)ccc1F` (stereo not shown) [Example 278, 5-{2-acetamidoimidazo[1,2-b]pyridazin-6-yl}-N-{1-[2-fluoro-5-(trifluoromethoxy)phenyl]ethyl}-2-methoxy-6-methylpyridine-3-carboxamide, TFA], the IC50 ([1]; TFA) was 6 nM and the IC50 ([2]; TFA) was 64 nM.

`COCC(=O)Nc1cn2nc(-c3cnc(OC)c(C(=O)NCc4cc(F)cc(F)c4OCC4CC4)c3)ccc2n1` [Example 261, N-{[2-(cyclopropylmethoxy)-3,5-difluorophenyl]methyl}-2-methoxy-5-[2-(2-methoxyacetamido)imidazo[1,2-b]pyridazin-6-yl]pyridine-3-carboxamide, TFA] was tested, and the IC50 [1] was 7 nM and the IC50 [2] was 8 nM.

Work on `CC(=O)Nc1cn2nc(-c3cnc(C)c(C(=O)Nc4cn(Cc5ccc(Cl)cc5)cn4)c3)ccc2n1` [Example 349, N-{1-[(4-chlorophenyl)methyl]-1H-imidazol-4-yl}-5-{2-acetamidoimidazo[1,2-b]pyridazin-6-yl}-2-methylpyridine-3-carboxamide] yielded an IC50 [1] of 51 nM and an IC50 ([2]; Homo sapiens) of 424 nM.

`COc1nc(C)c(-c2ccc3nc(NC(C)=O)cn3n2)cc1C(=O)NC(C)c1cc(OC(F)(F)F)ccc1F` (stereo not shown) [Example 279, 5-{2-acetamidoimidazo[1,2-b]pyridazin-6-yl}-N-{1-[2-fluoro-5-(trifluoromethoxy)phenyl]ethyl}-2-methoxy-6-methylpyridine-3-carboxamide, TFA] showed an IC50 ([1]; TFA) of 47 nM and an IC50 ([2]; TFA) of 51 nM.

Work on `CC(=O)Nc1cn2nc(-c3ccc(C)c(C(=O)NCc4c(F)cccc4-c4cnn(C)c4)c3)ccc2n1` [Example 402, 5-{2-acetamidoimidazo [1,2-b]pyridazin-6-yl}-N-{[2-fluoro-6-(1-methyl-1H-pyrazol-4-yl)phenyl]methyl}-2-methylbenzamide] yielded an IC50 [1] of 56 nM and an IC50 ([2]; Homo sapiens) of 94 nM.
